Test results published in ChEMBL document CHEMBL1201862, “PubChem BioAssay data set” (2004).
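Five concentrations, 48 hours, 96-well plates. Abbreviation: GI50, concentration required for 50% inhibition of growth.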 Calls of active or inactive are those of the source. No stated cut-off is given here; in the data, active = GI50 up to about 1.1 µM and inactive = higher.

Assays:
Test in all cases: DTP human tumour cell line panel, 48 h
SK-MEL-5 = test system: SK-MEL-5
UACC-257 = test system: UACC-257
HCC 2998 = test system: HCC 2998
K562 = test system: K562
NCI-H23 = test system: NCI-H23
UO-31 = test system: UO-31
MOLT-4 = test system: MOLT-4
LOX IMVI = test system: LOX IMVI
SF-268 = test system: SF-268
MDA-MB-435 = test system: MDA-MB-435
TK-10 = test system: TK-10
DU-145 = test system: DU-145
SNB-75 = test system: SNB-75
COLO 205 = test system: COLO 205
UACC-62 = test system: UACC-62
SK-MEL-2 = test system: SK-MEL-2
RPMI-8226 = test system: RPMI-8226
SF-539 = test system: SF-539
U-251 = test system: U-251
HOP-92 = test system: HOP-92
BT-549 = test system: BT-549
RXF 393 = test system: RXF 393
NCI/ADR-RES = test system: NCI/ADR-RES
Malme-3M = test system: Malme-3M
SN12C = test system: SN12C
EKVX = test system: EKVX
M14 = test system: M14
MDA-N = test system: MDA-N
SK-OV-3 = test system: SK-OV-3
OVCAR-8 = test system: OVCAR-8
OVCAR-5 = test system: OVCAR-5
SF-295 = test system: SF-295
Hs-578T = test system: Hs-578T
OVCAR-4 = test system: OVCAR-4
IGROV-1 = test system: IGROV-1
SR = test system: SR
MCF7 = test system: MCF7
NCI-H226 = test system: NCI-H226
HCT-15 = test system: HCT-15
HCT-116 = test system: HCT-116
ACHN = test system: ACHN
PC-3 = test system: PC-3
KM12 = test system: KM12
MDA-MB-231 = test system: MDA-MB-231
A549 = test system: A549
HOP-62 = test system: HOP-62
A498 = test system: A498
OVCAR-3 = test system: OVCAR-3
HT-29 = test system: HT-29
SNB-19 = test system: SNB-19
CAKI-1 = test system: CAKI-1
CCRF-CEM = test system: CCRF-CEM
SW-620 = test system: SW-620
HL-60 = test system: HL-60
NCI-H460 = test system: NCI-H460
786-0 = test system: 786-0
SK-MEL-28 = test system: SK-MEL-28

CCn1cc(C(c2ccc(Cl)cc2)n2ccnc2)c2cc(Br)ccc21 (stereo unspecified)
GI50 (SK-MEL-5): 15.7 µM (inactive)
GI50 (UACC-257): 14.1 µM (inactive)
GI50 (HCC 2998): 13.2 µM (inactive)
GI50 (K562): 4.85 µM (inactive)
GI50 (NCI-H23): 14.5 µM (inactive)
GI50 (UO-31): 6.9 µM (inactive)
GI50 (MOLT-4): 1.85 µM (inactive)
GI50 (LOX IMVI): 12.9 µM (inactive)
GI50 (SF-268): 11.2 µM (inactive)
GI50 (MDA-MB-435): 13.6 µM (inactive)
GI50 (TK-10): 16.1 µM (inactive)
GI50 (DU-145): 16.6 µM (inactive)
GI50 (SNB-75): 13.6 µM (inactive)
GI50 (COLO 205): 11.6 µM (inactive)
GI50 (UACC-62): 10.9 µM (inactive)
GI50 (SK-MEL-2): 17 µM (inactive)
GI50 (RPMI-8226): 3.48 µM (inactive)
GI50 (SF-539): 18.7 µM (inactive)
GI50 (U-251): 14.7 µM (inactive)
GI50 (HOP-92): 4.89 µM (inactive)
GI50 (BT-549): 14.8 µM (inactive)
GI50 (RXF 393): 14.8 µM (inactive)
GI50 (NCI/ADR-RES): 12.6 µM (inactive)
GI50 (Malme-3M): 17.7 µM (inactive)
GI50 (SN12C): 22.8 µM (inactive)
GI50 (EKVX): > 100 µM (inactive)
GI50 (M14): 13.3 µM (inactive)
GI50 (MDA-N): 20.1 µM (inactive)
GI50 (SK-OV-3): 17.7 µM (inactive)
GI50 (OVCAR-8): 10.8 µM (inactive)
GI50 (OVCAR-5): 11.7 µM (inactive)
GI50 (SF-295): 10.8 µM (inactive)
GI50 (Hs-578T): 18.7 µM (inactive)
GI50 (OVCAR-4): 9.64 µM (inactive)
GI50 (IGROV-1): 9.31 µM (inactive)
GI50 (SR): 4.35 µM (inactive)
GI50 (MCF7): 10.1 µM (inactive)
GI50 (NCI-H226): 22.1 µM (inactive)
GI50 (HCT-15): 12.2 µM
GI50 (HCT-116): 16.1 µM (inactive)
GI50 (ACHN): 12.8 µM (inactive)
GI50 (PC-3): 9.55 µM (inactive)
GI50 (KM12): 11.4 µM (inactive)
GI50 (MDA-MB-231): 14.8 µM (inactive)
GI50 (A549): 10.4 µM (inactive)
GI50 (HOP-62): 14.4 µM (inactive)
GI50 (A498): 13.4 µM (inactive)
GI50 (OVCAR-3): 10.3 µM (inactive)
GI50 (HT-29): 7.55 µM (inactive)
GI50 (SNB-19): 14.3 µM (inactive)
GI50 (CAKI-1): 13.7 µM (inactive)

O=C1c2cccc3cccc(c23)C(=O)N1CCCNOCCONCCCN1C(=O)c2cccc3cccc(c23)C1=O
GI50 (SK-MEL-5): 58.5 µM (inactive)
GI50 (UACC-257): 67.6 µM (inactive)
GI50 (HCC 2998): 98.2 µM (inactive)
GI50 (K562): 27 µM (inactive)
GI50 (CCRF-CEM): 11.8 µM (inactive)
GI50 (NCI-H23): 99.8 µM (inactive)
GI50 (UO-31): 45.5 µM (inactive)
GI50 (MOLT-4): 12.1 µM (inactive)
GI50 (LOX IMVI): 43.5 µM (inactive)
GI50 (SF-268): 79.4 µM (inactive)
GI50 (MDA-MB-435): > 100 µM (inactive)
GI50 (TK-10): > 100 µM (inactive)
GI50 (DU-145): > 100 µM (inactive)
GI50 (SW-620): 66.4 µM (inactive)
GI50 (SNB-75): 42.6 µM (inactive)
GI50 (COLO 205): 83.8 µM (inactive)
GI50 (UACC-62): > 100 µM (inactive)
GI50 (SK-MEL-2): > 100 µM (inactive)
GI50 (RPMI-8226): 16.9 µM (inactive)
GI50 (U-251): 59.7 µM (inactive)
GI50 (HOP-92): 56 µM (inactive)
GI50 (BT-549): 73.3 µM (inactive)
GI50 (RXF 393): 29.4 µM (inactive)
GI50 (NCI/ADR-RES): 12.7 µM (inactive)
GI50 (Malme-3M): 91.2 µM (inactive)
GI50 (EKVX): > 100 µM (inactive)
GI50 (M14): 62.4 µM (inactive)
GI50 (MDA-N): > 100 µM (inactive)
GI50 (SK-OV-3): > 100 µM (inactive)
GI50 (OVCAR-8): 43.3 µM (inactive)
GI50 (OVCAR-5): > 100 µM (inactive)
GI50 (HL-60): 4.84 µM (inactive)
GI50 (NCI-H460): 59.4 µM (inactive)
GI50 (SF-295): > 100 µM (inactive)
GI50 (Hs-578T): 92.3 µM (inactive)
GI50 (OVCAR-4): 86.3 µM (inactive)
GI50 (786-0): 33.5 µM (inactive)
GI50 (IGROV-1): 62.8 µM (inactive)
GI50 (SR): 81.7 µM (inactive)
GI50 (MCF7): 64.7 µM (inactive)
GI50 (SK-MEL-28): > 100 µM (inactive)
GI50 (NCI-H226): 74.6 µM (inactive)
GI50 (HCT-15): 44 µM
GI50 (HCT-116): 27.4 µM (inactive)
GI50 (ACHN): > 100 µM (inactive)
GI50 (PC-3): 55.1 µM (inactive)
GI50 (KM12): > 100 µM (inactive)
GI50 (MDA-MB-231): > 100 µM (inactive)
GI50 (A549): 95.9 µM (inactive)
GI50 (HOP-62): 62.1 µM (inactive)
GI50 (A498): > 100 µM (inactive)
GI50 (OVCAR-3): 94 µM (inactive)
GI50 (HT-29): 92.5 µM (inactive)
GI50 (SNB-19): 47.9 µM (inactive)
GI50 (CAKI-1): 49.3 µM (inactive)
